In patent US20240336574A1 (LATIGO BIOTHERAPEUTICS, INC., priority 2021, published 2024):
Where two headings read alike, the source gives them in different places.

Target: T1, recombinant human NaV1.8 stably transfected HEK cells (Homo sapiens, UniProt Q9Y5Y9)
T1 construct: expressed in transfected cells; host or cells: HEK cells, stably transfected
Assay: Compound profiling on NaV1.8, human NaV1.8 cell line, SyncroPatch384PE automated patch clamp assay (Example 102, first set of compounds, Table 16)
Format: cell-based
Settings: human NaV1.8 HEK cells, Table 16 (first set of compounds)
Procedure, shortened: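 Automated whole-cell patch clamp on HEK cells precultured at 30 °C one day before recording; CsF-based internal, 140 mM NaCl external. 10-point curve, 20–0.001 μM final, 0.1% DMSO, 5 min exposure. IC50 for resting (P1, −120 mV hold) and inactivated (P2, after 10 s at −40 mV) block, normalized to 250 μM tetracaine and DMSO.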

[1] = inactivated state block (P2 measurement), read-out: P2IC50
[2] = resting state block (P1 measurement), read-out: P1IC50

T1 sequence (Q9Y5Y9 whole entry): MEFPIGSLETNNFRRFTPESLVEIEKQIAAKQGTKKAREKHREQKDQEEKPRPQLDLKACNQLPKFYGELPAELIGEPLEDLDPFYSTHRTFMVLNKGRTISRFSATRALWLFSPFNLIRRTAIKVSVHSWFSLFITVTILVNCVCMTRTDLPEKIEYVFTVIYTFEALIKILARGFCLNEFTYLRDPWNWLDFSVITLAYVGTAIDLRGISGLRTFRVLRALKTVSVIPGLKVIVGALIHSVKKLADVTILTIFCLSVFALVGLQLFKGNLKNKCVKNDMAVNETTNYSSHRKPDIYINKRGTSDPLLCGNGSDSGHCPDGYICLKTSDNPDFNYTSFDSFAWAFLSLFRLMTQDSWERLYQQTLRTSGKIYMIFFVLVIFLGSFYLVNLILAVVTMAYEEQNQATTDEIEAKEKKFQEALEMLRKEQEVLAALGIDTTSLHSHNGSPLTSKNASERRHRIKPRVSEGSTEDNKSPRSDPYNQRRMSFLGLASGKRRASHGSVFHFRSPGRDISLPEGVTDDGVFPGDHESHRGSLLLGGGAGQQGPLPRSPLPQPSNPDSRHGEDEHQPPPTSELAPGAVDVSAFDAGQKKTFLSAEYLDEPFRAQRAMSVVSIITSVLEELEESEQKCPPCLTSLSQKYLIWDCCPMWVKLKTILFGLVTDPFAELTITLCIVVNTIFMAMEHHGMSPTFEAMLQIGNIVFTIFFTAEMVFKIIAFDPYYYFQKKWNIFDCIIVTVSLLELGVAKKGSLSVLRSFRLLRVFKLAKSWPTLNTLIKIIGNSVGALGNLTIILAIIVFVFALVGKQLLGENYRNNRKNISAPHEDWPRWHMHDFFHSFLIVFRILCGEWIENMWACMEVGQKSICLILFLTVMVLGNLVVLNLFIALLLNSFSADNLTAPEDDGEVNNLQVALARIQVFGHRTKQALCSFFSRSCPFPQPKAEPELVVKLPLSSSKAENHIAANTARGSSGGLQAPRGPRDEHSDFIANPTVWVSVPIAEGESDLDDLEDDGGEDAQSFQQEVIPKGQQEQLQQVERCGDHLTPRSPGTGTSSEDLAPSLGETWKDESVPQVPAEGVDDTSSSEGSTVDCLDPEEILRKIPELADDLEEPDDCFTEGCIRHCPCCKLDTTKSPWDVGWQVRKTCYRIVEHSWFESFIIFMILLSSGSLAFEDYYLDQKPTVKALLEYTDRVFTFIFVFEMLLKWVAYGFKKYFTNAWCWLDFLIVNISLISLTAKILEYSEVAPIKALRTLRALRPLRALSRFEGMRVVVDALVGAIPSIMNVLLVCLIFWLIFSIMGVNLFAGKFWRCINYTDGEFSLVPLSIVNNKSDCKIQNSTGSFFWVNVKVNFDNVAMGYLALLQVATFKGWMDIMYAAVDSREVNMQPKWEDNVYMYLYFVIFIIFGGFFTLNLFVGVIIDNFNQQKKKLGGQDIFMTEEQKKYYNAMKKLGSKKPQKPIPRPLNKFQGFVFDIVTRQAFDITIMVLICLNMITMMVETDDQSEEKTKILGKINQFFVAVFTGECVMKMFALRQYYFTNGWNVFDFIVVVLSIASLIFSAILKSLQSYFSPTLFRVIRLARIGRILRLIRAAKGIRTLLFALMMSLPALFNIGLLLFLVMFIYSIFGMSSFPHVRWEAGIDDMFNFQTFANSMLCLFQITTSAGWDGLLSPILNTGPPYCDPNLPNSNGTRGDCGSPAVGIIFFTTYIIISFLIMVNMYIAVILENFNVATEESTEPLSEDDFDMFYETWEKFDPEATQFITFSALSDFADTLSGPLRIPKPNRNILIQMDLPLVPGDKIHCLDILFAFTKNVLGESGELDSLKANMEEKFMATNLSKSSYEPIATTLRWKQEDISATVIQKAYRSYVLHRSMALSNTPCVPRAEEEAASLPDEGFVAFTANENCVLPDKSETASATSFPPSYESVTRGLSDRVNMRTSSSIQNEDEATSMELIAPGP

| SMILES | IC50 [1] [nM] | IC50 [2] [nM] |
| --- | --- | --- |
| COc1cc(C#N)ccc1Oc1nnc(C(F)(F)F)c(C)c1C(=O)Nc1cccc([S@](C)(=N)=O)c1 (single isomer, unassigned) [Compound 1480] | ≤ 20 | ≤ 20 |
| COc1cc(Oc2ncc(C(F)(F)F)cc2C(=O)Nc2cccc(S(C)(=N)=O)c2)ccc1C#N (stereo not drawn) [Compound 1645] | 200 to 500 | 200 to 500 |
| COc1cc(C#N)ccc1Oc1nnc(-c2ccc(C)cc2)c(C)c1C(=O)Nc1cccc([S@](C)(=N)=O)c1 [Compound 1529, 3-(4-cyano-2-methoxyphenoxy)-N-{3-[(R)-imino(methyl)oxo-λ6-sulfanyl]phenyl}-5-methyl-6-(4-methylphenyl)pyridazine-4-carboxamide] | ≤ 20 | ≤ 20 |
| COc1cc(C#N)ccc1Oc1nnc(-c2ccc(C)cc2)c(C)c1C(=O)Nc1cccc(S(C)(=N)=O)c1 (stereo not drawn) [Compound 1450, 3-(4-cyano-2-methoxy-phenoxy)-5-methyl-N-[3-(methylsulfonimidoyl)phenyl]-6-(p-tolyl)pyridazine-4-carboxamide] | ≤ 20 | ≤ 20 |
| CS(=O)(=O)c1cccc(NC(=O)c2cc(C(F)(F)F)cnc2Oc2ccc3c(c2)NC(=O)C3)c1 [Compound 1601] | 200 to 500 | 200 to 500 |
| COc1cc(C#N)ccc1Oc1nnc(-c2cnc(C)nc2)c(C)c1C(=O)Nc1cccc(S(C)(=N)=O)c1 (stereo not drawn) [Compound 1457, 3-(4-cyano-2-methoxy-phenoxy)-5-methyl-6-(2-methylpyrimidin-5-yl)-N-[3-(methylsulfonimidoyl)phenyl]pyridazine-4-carboxamide] | 200 to 500 | 200 to 500 |
| CCc1c(C(F)(F)F)nnc(Oc2ccc(F)cc2OC)c1C(=O)Nc1cccc([S@@](C)(=N)=O)c1 [Compound 1518, (S)-5-ethyl-3-(4-fluoro-2-methoxyphenoxy)-N-(3-(S-methylsulfonimidoyl)phenyl)-6-(trifluoromethyl)pyridazine-4-carboxamide] | ≤ 20 | ≤ 20 |
| Cc1c(Oc2nnc(C(F)(F)F)c(C)c2C(=O)Nc2cccc(S(C)(=N)=O)c2)ccc(OC(F)(F)F)c1F (stereo not drawn) [Compound 1515, 3-[3-fluoro-2-methyl-4-(trifluoromethoxy)phenoxy]-N-{3-[imino(methyl)oxo-λ^6-sulfanyl]phenyl}-5-methyl-6-(trifluoromethyl)pyridazine-4-carboxamide] | ≤ 20 | ≤ 20 |
| COc1ccc(Oc2nnc(C(F)(F)F)c(C)c2C(=O)Nc2cccc(S(C)(=O)=O)c2)c(C)n1 [Compound 1428] | 40 to 200 | 40 to 200 |
| CS(=O)(=O)c1cccc(NC(=O)c2cc(C(F)(F)F)cnc2Oc2ccc3c(c2)CC(=O)N3)c1 [Compound 1598] | 200 to 500 | 200 to 500 |
| COc1c(Oc2ncc(Br)cc2C(=O)Nc2ccc(C(N)=O)cc2)ccc(F)c1F [Compound 1569, 5-bromo-N-(4-carbamoylphenyl)-2-(3,4-difluoro-2-methoxy-phenoxy)pyridine-3-carboxamide] | ≤ 20 | ≤ 20 |

Now from value to molecule:

| IC50 [1] [nM] | IC50 [2] [nM] | SMILES |
| --- | --- | --- |
| 200 to 500 | 200 to 500 | COc1cc(C#N)ccc1Oc1nnc(-c2ccc(C)cn2)c(C)c1C(=O)Nc1cccc(S(C)(=N)=O)c1 (stereo not drawn) [Compound 1464, 3-(4-cyano-2-methoxy-phenoxy)-5-methyl-6-(5-methyl-2-pyridyl)-N-[3-(methylsulfonimidoyl)phenyl]pyridazine-4-carboxamide] |
| 40 to 200 | 40 to 200 | Cc1c(C(F)(F)F)nnc(Oc2ccc(Cl)cc2F)c1C(=O)Nc1ccc(C(N)=O)cc1 [Compound 1404] |
| 40 to 200 | 40 to 200 | CCOc1ccc(Oc2ncc(C(F)(F)F)cc2C(=O)Nc2cccc(S(C)(=N)=O)c2)cc1 (stereo not drawn) [Compound 1609] |
| 20 to 40 | 20 to 40 | Cc1cc(F)ccc1Oc1nnc(C(F)(F)F)c(C2CC2)c1C(=O)Nc1cccc([S@@](C)(=N)=O)c1 [Compound 1519, (S)-5-cyclopropyl-3-(4-fluoro-2-methylphenoxy)-N-(3-(S-methylsulfonimidoyl)phenyl)-6-(trifluoromethyl)pyridazine-4-carboxamide] |
| 40 to 200 | 40 to 200 | CS(=O)(=O)c1cccc(NC(=O)c2cc(C(F)(F)F)cnc2OCC2CC2(F)F)c1 (stereo not drawn) [Compound 1659] |
| 200 to 500 | 200 to 500 | Cc1c(C(F)(F)F)nnc(OCC23CC(F)(C2)C3)c1C(=O)Nc1cccc(S(C)(=N)=O)c1 (stereo not drawn) [Compound 1470, 3-[(3-fluoro-1-bicyclo[1.1.1]pentanyl)methoxy]-5-methyl-N-[3-(methylsulfonimidoyl)phenyl]-6-(trifluoromethyl)pyridazine-4-carboxamide] |
| 200 to 500 | 200 to 500 | CC(C)Oc1ccc(Oc2ncc(C(F)(F)F)cc2C(=O)Nc2cccc(C(N)=O)c2)c(F)c1 [Compound 1708] |
| 20 to 40 | 40 to 200 | COc1cc(C#N)ccc1Oc1nnc(C(F)(F)F)c(C)c1C(=O)Nc1ccc(C(N)=O)nc1 [Compound 1539, N-(6-carbamoyl-3-pyridyl)-3-(4-cyano-2-methoxy-phenoxy)-5-methyl-6-(trifluoromethyl)pyridazine-4-carboxamide] |
| 200 to 500 | 200 to 500 | CS(=O)(=O)c1cccc(NC(=O)c2cc(C(F)(F)F)cnc2Oc2cccn3ccnc23)c1 [Compound 1599] |
| 200 to 500 | 200 to 500 | CC(C)Oc1ccc(Oc2ncc(C(F)(F)F)cc2C(=O)Nc2cccc(S(C)(=N)=O)c2)c(F)c1 (stereo not drawn) [Compound 1706] |
